The text below walks through data of patent publication US8063095B2, “IAP BIR domain binding compounds” (Pharmascience Inc., priority 2005, dated 2011).

As usually defined, the IC50 is the concentration that gives 50% inhibition. A low value points to greater potency in that assay. As usually defined, the EC50 is the midpoint of the concentration-response curve.

Experiment [1] has as its target T1, XIAP L-Bir2-Bir3 (GST-XIAP Linker Bir2Bir3RING fusion protein) (Homo sapiens, UniProt P98170).
T1 construct: made in house; host or cells: E. coli DH5-alpha
The experiment in a line: Caspase de-repression assay using cellular extracts (apoptosome), L-Bir2-Bir3 XIAP. It counts as biochemical. The note with it: 293 cell S100 extract; effective concentration to achieve 50% of activation. How it is done:
GST-linker BIR2BIR3Ring: XIAP coding sequence from amino acids 93-497 cloned into PGex4T1 via BamH1 and XhoI. Amino acids 93-497 were amplified from full length XIAP in pGex4t3, using the primers: […] and GCTGCATGTGTGTCAGAGG, using standard PCR conditions. The PCR fragment was TA cloned into pCR-2.1 (invitrogen). Linker BIR2BIR3Ring was subcloned into pGex4T1 by BamHI/XhoI digestion. The plasmid was transformed into E. coli DH5α for use in protein expression and purification. […]
100 ug of 293 cell S100 extract and 0.25 uM-2 uM of GST-XIAP fusion protein (XIAP-Bir3RING, XIAP-Linker Bir2Bir3RING, or full-length XIAP) were co-incubated with serial dilutions of compound (40 uM-5 pM). Caspases present in the extracts were activated by adding 1 mM dATP, 0.1 mM ALLN, 133 ug Cytochrome C (final concentrations), and incubating at 37° C. for 25 minutes. All reactions and dilutions used S100 buffer (50 mM Pipes pH 7.0, 50 mM KCl, 0.5 mM EGTA pH 8.0, 2 mM MgCl2 supplemented with 1/1000 dilutions of 2 mg/ml Cytochalisin B, 2 mg/ml Chymotstatin, Leupeptin, Pepstatin, Antipain, 0.1M PMSF, 1M DTT). Final reaction volume was 30 ul. Caspase-3 activity was measured by overlaying 30 ul of a 0.4 mM DEVD-AMC solution. released AMC cleavage was measured in a TECAN spectrophotometer at 360 nm excitation and 444 nm emission, on a kinetic cycle of 1 hour with readings taken every 5 minutes. Caspase activity was calculated as Vo of AMC fluorescence/sec. Caspase de-repression by our compounds was compared to fully activated extract and activated extract repressed by the presence of XIAP fusion protein.

The target of experiment [2] is T2, XIAP bir3 domain (GST-XIAP BIR3RING) (Homo sapiens, UniProt P98170).
T2 construct: made in house; host or cells: E. coli DH5-alpha
T2 sequence (P98170 246-497): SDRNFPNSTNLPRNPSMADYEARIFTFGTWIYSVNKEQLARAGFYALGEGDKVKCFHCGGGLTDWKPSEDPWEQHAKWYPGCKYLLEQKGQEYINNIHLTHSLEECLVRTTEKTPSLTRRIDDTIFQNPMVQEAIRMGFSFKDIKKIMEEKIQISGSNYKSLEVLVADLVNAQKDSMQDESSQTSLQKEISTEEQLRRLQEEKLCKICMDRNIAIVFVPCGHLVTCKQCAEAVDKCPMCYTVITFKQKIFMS
Nature of the experiment: Fluorescence polarization-based competition assay, XIAP. The note with it: Ki calculated from displacement of fluorescent probe; read-out: Fluorescent polarization (FP) assay Xiap. It counts as binding. Here is the method: GST-XIAP BIR3RING: XIAP coding sequence amino acids 246-497 cloned into PGEX2T1 via BamH1 and AVA I. The plasmid was transformed into E. coli DH5a for use in protein expression and purification.
(§1) A fluorescent peptide probe, Fmoc-Ala-Val-Pro-Phe-Tyr(t-Bu)-Leu-Pro-[…]-Gly-OH was prepared using standard Fmoc chemistry on 2-chlorotrityl chloride resin (Int. J. Pept. Prot. Res. 38:555-561, 1991). Cleavage from the resin was performed using 20% acetic acid in dichloromehane (DCM), which left the side chain still blocked. The C-terminal protected carboxylic acid was coupled to 4′-(aminomethy)fluorescein (Molecular Probes, A-1351; Eugene, Oreg.) using excess diisopropylcarbodiimide (DIC) in dimethylformamide (DMF) at room temperature and was purified by silica gel chromatography (10% methanol in DCM). The N-terminal Fmoc protecting group was removed using piperidine (20%) in DMF, and purified by silica gel chromatography (20% methanol in DCM, 0.5% HOAc). Finally, the t-butyl side chain protective groups were removed using 95% trifluoroacetic acid containing 2.5% water and 2.5% triisopropyl silane.
(§2) For all assays, the fluorescence and fluorescence-polarization was evaluated using a Tecan Polarion instrument with the excitation filter set at 485 nm and the emission filter set at 535 nm. For each assay, the concentration of the target protein was first establish by titration of the selected protein in order to produce a linear dose-response signal when incubated alone in the presence of the fluorescent probe. Upon establishing these conditions, the compounds potency (IC50) and selectivity, was assessed in the presence of a fix defined amount of target protein and fluorescent probe and a 10 point serial dilution of the selected compounds. For each IC50 curve, the assays were run as followed: 25 ul/well of diluted compound in 50 mM MES buffer pH 6.5 were added into a black 96 well plate then 25 ul/well of bovine serum albumin (BSA) at 0.5 mg/ml in 50 mM MES pH 6.5. Auto-fluorescence for each compound was first assessed by performing a reading of the compound/BSA solution alone. Then 25 ul of the fluorescein probe diluted into 50 mM MES containing 0.05 mg/ml BSA were added and a reading to detect quenching of fluorescein signal done. Finally 25 ul/well of the target or control protein (GST-BIRs) diluted at the appropriate concentration in 50 mM MES containing 0.05 mg/ml BSA were added and the fluorescence polarization evaluated.
(§3) For each assay the relative polarization-fluorescence units were plotted against the final concentrations of compound and the IC50 calculated using the Grad pad prism software and/or Cambridge soft. The ki value were derived from the calculated IC50 value as described above and according to the equation described in Nikolovska-Coleska, Z. (2004) Anal Biochem 332, 261-273.

Experiment [3] has as its target T3, cIAP-1 bir3 domain (GST-HIAP2 (cIAP-1) BIR3) (Homo sapiens, UniProt Q13490).
T3 construct: made in house; host or cells: E. coli DH5-alpha
Nature of the experiment: Fluorescence polarization-based competition assay, cIAP-1. The note with it: Ki calculated from displacement of fluorescent probe; read-out: Fluorescent polarization (FP) assay cIAP-1. It counts as binding. How it is done:
GST-HIAP2 (cIAP-1) BIR3: HIAP2 coding sequence from amino acids 251-363 cloned into PGex4T3 via BamH1 and XhoI. The plasmid was transformed into E. coli DH5α for use in protein expression and purification.
as §1, §2, §3

Experiment [4] concerns the target T4, cIAP-2 bir3 domain (GST-HIAP1(cIAP-2) BIR3) (Homo sapiens, UniProt Q13489).
T4 construct: made in house; host or cells: E. coli DH5-alpha
The experiment in a line: Fluorescence polarization-based competition assay, cIAP-2. To be noted: Ki calculated from displacement of fluorescent probe; read-out: Fluorescent polarization (FP) assay cIAP-2. It counts as binding. How it is done: GST-HIAP1(cIAP-2) BIR3: HIAP1 coding sequence from amino acids 236-349, cloned into PGex4T3 via BamH1 and XhoI. The plasmid was transformed into E. coli DH5α for use in protein expression and purification.
as §1, §2, §3

For experiment [5], the system named is MDA-MB-231 (breast) cancer cells. The experiment in a line: Cell viability (MTT) assay, MDA cells. The note with it: Homo sapiens, MTT based assay. Here is the method:
(§4) MDA-MD-231 (breast) and SKOV-3 (ovarian) cancer cells were cultured in RPMI1640 media supplemented with 10% FBS and 100 units/mL of Penicillin and Steptomycin.
(§5) Viability assays were done on a number of cells including MDA-MB-231, SKOV-3, H460, PC3, HCT-116, and SW480 cells. Cells were seeded in 96 well plates at a respective density of 5000 and 2000 cells per well and incubated at 37° C. in presence of 5% CO2 for 24 hours. Selected compounds were diluted into the media at various concentration ranging from 0.01 uM up to 100 uM. Diluted compounds were added onto the MDA-MB-231 cells. For the MDA-MB-231 SKOV3, H460, PC3, HCT-116, and SW480 cells, the compounds were added either alone or in presence of 1-3 ng/ml of TRAIL. After 72 hours cellular viability was evaluated by MTT based assays.

For experiment [6], the system named is SKOV-3 (ovarian) cancer cells. Nature of the experiment: Cell viability (MTT) assay, SKOV3 cells. The note with it: 72 hours, MTT based assay; compounds added either alone or in presence of 1-3 ng/ml of TRAIL. How it is done:
as §4, §5
On the technique in general: Tetrazolium dyes change colour on reduction, which living cells bring about.

The test system of the next experiment is HCT-116 tumors. The experiment in a line: Combination anti-cancer therapy in vivo (HCT-116 tumors, with mitomycin-C). To be noted: HCT-116 tumors in female nude mice. How it is done: Female nude mice received […] HCT-116 subdermally on the right flank. On day 26, when tumors were […], animals were assigned to groups using a balanced design based on tumor size. At that time mitomycin-C and Compound 23 treatment was initated. Mitomycin-C was administered ip at 1 mg/kg, Monday through Friday for two weeks. Compound 23 was given iv at 1 or 5 mg/kg five times per week for the duration of the experiment. Tumor measurements were taken twice weekly.

T3 sequence (Q13490 251-363): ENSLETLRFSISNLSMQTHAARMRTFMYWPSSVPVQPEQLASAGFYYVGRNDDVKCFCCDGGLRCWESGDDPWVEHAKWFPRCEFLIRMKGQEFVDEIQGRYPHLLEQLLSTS
T4 sequence (Q13489 236-349): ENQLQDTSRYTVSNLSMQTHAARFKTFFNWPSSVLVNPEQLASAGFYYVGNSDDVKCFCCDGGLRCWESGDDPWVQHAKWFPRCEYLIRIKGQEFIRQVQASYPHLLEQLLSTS
T1 sequence (P98170 93-497): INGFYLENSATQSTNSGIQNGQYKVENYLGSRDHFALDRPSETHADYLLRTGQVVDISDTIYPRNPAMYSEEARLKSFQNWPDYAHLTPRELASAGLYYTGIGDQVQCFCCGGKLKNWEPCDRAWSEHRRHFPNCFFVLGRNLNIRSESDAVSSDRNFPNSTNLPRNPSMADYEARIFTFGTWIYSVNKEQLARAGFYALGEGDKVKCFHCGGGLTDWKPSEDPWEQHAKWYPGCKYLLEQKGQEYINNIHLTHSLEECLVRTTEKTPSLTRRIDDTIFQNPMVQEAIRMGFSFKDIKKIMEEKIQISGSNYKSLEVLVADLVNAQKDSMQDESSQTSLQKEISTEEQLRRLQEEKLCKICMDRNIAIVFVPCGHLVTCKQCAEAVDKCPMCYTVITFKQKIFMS

The compound `CN[C@@H](C)C(=O)N[C@H](C(=O)N1CCC[C@H]1CN(CCc1ccccc1)C(=O)C(F)(F)F)[C@@H](C)OCC#CC#CCO[C@H](C)[C@H](NC(=O)[C@H](C)NC)C(=O)N1CCC[C@H]1CN(CCc1ccccc1)C(=O)C(F)(F)F` [Compound 1] returned a half-inhibitory concentration (IC50) in experiment [1] not above 100 nM. Also, the Ki was not above 100 nM in experiment [2], not below 100 nM in experiment [3] and not below 100 nM in experiment [4]. The EC50 is less than 100 nM in experiment [5] (MDA-MB-231, 72 h) and less than 100 nM in experiment [6].

For `CN[C@@H](C)C(=O)N[C@H](C(=O)N1CCC[C@H]1CN(CCc1ccccc1)C(=O)[C@H](N)Cc1ccc(OC)cc1)[C@@H](C)OCC#CC#CCO[C@H](C)[C@H](NC(=O)[C@H](C)NC)C(=O)N1CCC[C@H]1CN(CCc1ccccc1)C(=O)[C@H](N)Cc1ccc(OC)cc1` [Compound 2], in experiment [1], the half-inhibitory concentration (IC50) is not above 100 nM. In addition, the Ki in experiment [2] was not above 100 nM; in experiment [3], not above 100 nM; in experiment [4] it was not below 100 nM. Moreover, in experiment [5] (MDA-MB-231, 72 hours), the half-maximal effective concentration (EC50) was less than 100 nM.

Turning to `CN[C@@H](C)C(=O)N[C@H](C(=O)N1CCC[C@H]1CN(CCc1ccccc1)C(=O)c1ccccc1)[C@@H](C)OCC#CC#CCO[C@H](C)[C@H](NC(=O)[C@H](C)NC)C(=O)N1CCC[C@H]1CN(CCc1ccccc1)C(=O)c1ccccc1` [Compound 3], in experiment [1], the half-maximal inhibitory concentration (IC50) is not above 500 nM. The Ki in experiment [2] was not above 100 nM; in experiment [3], not above 100 nM; in experiment [4] it was not above 5 nM. Also, the EC50 in experiment [5] (MDA-MB-231, 72 h) is less than 100 nM.

In turn, `CN[C@@H](C)C(=O)N[C@@H](COCc1ccc(-c2ccc(COC[C@H](NC(=O)[C@H](C)NC)C(=O)N3CCC[C@H]3CN(CCc3ccccc3)C(=O)C(F)(F)F)cc2)cc1)C(=O)N1CCC[C@H]1CN(CCc1ccccc1)C(=O)C(F)(F)F` [Compound 12] displayed an IC50 in experiment [1] not below 1000 nM. Further, the Ki in experiment [2] is not below 100 nM; in experiment [3] it was not above 100 nM; in experiment [4], not above 5 nM. In experiment [5] (MDA-MB-231, 72 hours), this compound showed an EC50 of less than 100 nM.

`CN[C@@H](C)C(=O)N[C@H](C(=O)N1CCC[C@H]1C(=O)N[C@@H]1CCCc2ccccc21)[C@@H](C)OCC#CC#CCO[C@H](C)[C@H](NC(=O)[C@H](C)NC)C(=O)N1CCC[C@H]1C(=O)N[C@@H]1CCCc2ccccc21` [Compound 23]: the IC50 in experiment [1] was not above 500 nM. Further, the Ki is not above 100 nM in experiment [2], not above 5 nM in experiment [3] and not above 100 nM in experiment [4]. Also, the EC50 in experiment [5] (MDA-MB-231, 72 h) was less than 100 nM; in experiment [6], less than 100 nM. Moreover, the “anti-tumor effect at 5 mg/kg compared to the 1 mg/kg dose” value in the experiment with HCT-116 tumors (5 mg/kg iv in combination with mitomycin-C ip 1 mg/kg) was “superior anti-tumor effects”. Further, the “anti-tumor effect in combination with mitomycin-C” value in the experiment on HCT-116 tumors (iv at 1 or 5 mg/kg five times per week, mitomycin-C ip 1 mg/kg) was “increasing anti-tumor effect in combination with mitomycin-C with increasing dose”.
